Values belong to the compound of their own block, whether it stands above or below them.
SMILES: COCC(=O)N[C@H]1CC[C@H](CCN2CCN(c3cccc4c3CCCC4)CC2)CC1 [Example 130, 2-Methoxy-N-(4-{2-[4-(5,6,7,8-tetrahydronaphthalen-1-yl)piperazin-1-yl]ethyl}cyclohexyl)acetamide]
melting point: 120 °C

SMILES: CSc1cccc(N2CCN(CC[C@H]3CC[C@H](NC(=O)CCCC#N)CC3)CC2)c1 [Example 238, 4-Cyano-N-(4-{2-[4-(3-methylsulfanylphenyl)piperazin-1-yl]ethyl}cyclohexyl)butanamide]
melting point: 127 °C

SMILES: COCCCC(=O)N[C@H]1CC[C@H](CCN2CCN(c3cc(F)cc(Cl)c3)CC2)CC1 [Example 740, N-(4-{2-[4-(3-Chloro-5-fluorophenyl)piperazin-1-yl]ethyl}cyclohexyl)-4-methoxybutanamide]
melting point: 177 °C

SMILES: CCc1cccc(N2CCN(CC[C@H]3CC[C@H](NC(=O)CS(C)(=O)=O)CC3)CC2)c1 [Example 425, N-(4-{2-[4-(3-Ethylphenyl)-piperazin-1-yl]ethyl}cyclohexyl)-2-methanesulfonylacetamide]
melting point: 185 °C

SMILES: N#CCC(=O)N[C@H]1CC[C@H](CCN2CC=C(c3ccccc3F)CC2)CC1
melting point: 156 °C

SMILES: NC(=O)CCC(=O)N[C@H]1CC[C@H](CCN2CCN(c3ccc(F)c(Cl)c3F)CC2)CC1 [Example 602, N-(4-{2-[4-(3-Chloro-2,4-difluorophenyl)piperazin-1-yl]ethyl}cyclohexyl)succinamide]
melting point: 257 °C

SMILES: COCCCC(=O)N[C@H]1CC[C@H](CCN2CCN(c3ccc(Cl)c(Cl)c3F)CC2)CC1 [Example 684, N-(4-{2-[4-(3,4-Dichloro-2-fluoro-phenyl)piperazin-1-yl]ethyl}cyclohexyl)-4-methoxybutanamide]
melting point: 210 °C

SMILES: CCc1cccc(N2CCN(CC[C@H]3CC[C@H](NC(=O)CCCC#N)CC3)CC2)c1.Cl
melting point: 205 °C

SMILES: COc1ccc(N2CCN(CC[C@H]3CC[C@H](NC(=O)CC#N)CC3)CC2)cc1 [Example 573, 2-Cyano-N-(4-{2-[4-(4-methoxyphenyl)piperazin-1-yl]ethyl}cyclohexyl)acetamide]
melting point: 227 °C

SMILES: Cc1ccccc1C1=CCN(CC[C@H]2CC[C@H](NC(=O)CCCC#N)CC2)CC1
melting point: 140 °C

SMILES: N#CCC(=O)N[C@H]1CC[C@H](CCN2CC=C(c3cc(C(F)(F)F)cc(C(F)(F)F)c3)CC2)CC1
melting point: 174 °C

SMILES: N#CCCCC(=O)N[C@H]1CC[C@H](CCN2CCN(c3cc(Cl)c(Cl)cc3Cl)CC2)CC1 [Example 764, 4-Cyano-N-(4-{2-[4-(2,4,5-trichlorophenyl)piperazin-1-yl]ethyl}cyclohexyl)butanamide]
melting point: 179 °C

SMILES: O=C(N[C@H]1CC[C@H](CCN2CCN(c3ccccc3)CC2)CC1)C1=CCCCC1 [Example 66, Cyclohex-1-enecarboxylic acid {4-[2-(4-phenylpiperazin-1-yl)ethyl]cyclohexyl}amide trans/cis 90/10]
melting point: 193 °C

SMILES: O=C(N[C@H]1CC[C@H](CCN2CCN(c3ccc(F)cc3F)CC2)CC1)C1=CCCCO1 [Example 565, 5,6-Dihydro-4H-pyran-2-carboxylic acid (4-{2-[4-(2,4-difluorophenyl)piperazin-1-yl]ethyl}cyclohexyl) amide]
melting point: 160 °C

SMILES: N#CCCCC(=O)N[C@H]1CC[C@H](CCN2CCN(c3ccc(Cl)cc3)CC2)CC1 [Example 479, N-(4-{2-[4-(4-Chlorophenyl)piperazin-1-yl]ethyl}cyclohexyl)-4-cyanobutanamide]
melting point: 190 °C

SMILES: Cc1cccc(N2CCN(CC[C@H]3CC[C@H](NC(=O)CCCC#N)CC3)CC2)c1 [Example 234, 4-Cyano-N-{4-[2-(4-m-tolylpiperazin-1-yl)ethyl]cyclohexyl}butanamide]
melting point: 150 °C

SMILES: CC(=O)NCC(=O)N[C@H]1CC[C@H](CCN2CCN(c3ccccc3)CC2)CC1 [Example 128, 2-Acetylamino-N-{4-[2-(4-phenylpiperazin-1-yl)ethyl]cyclohexyl}acetamide]
melting point: 227 °C

SMILES: N#CCCC(=O)N[C@H]1CC[C@H](CCN2CCN(c3cc(C(F)(F)F)cc(C(F)(F)F)c3)CC2)CC1 [Example 213, N-(4-{2-[4-(3,5-Bistrifluoromethylphenyl)piperazin-1-yl]ethyl}cyclohexyl)-3-cyanopropanamide]
melting point: 158 to 159 °C

SMILES: CSc1cccc(N2CCN(CC[C@H]3CC[C@H](NC(=O)CC#N)CC3)CC2)c1 [Example 182, 2-Cyano-N-(4-{2-[4-(3-methylsulfanylphenyl)piperazin-1-yl]ethyl}cyclohexyl)acetamide]
melting point: 132 °C

Other lines, results leading:

melting point: 277 to 278 °C
SMILES: COc1cc(N2CCN(CCC3CCN(CC(C)=O)CC3)CC2)cc(C(F)(F)F)c1.Cl.Cl

melting point: 188 °C
SMILES: CC(C)(C)OC(=O)N1CCC(CCN2CCN(c3cccc(C(F)(F)F)c3)CC2)CC1.Cl

melting point: 192 °C
SMILES: O=C(N[C@H]1CC[C@H](CCN2CCN(c3cccc(C(F)(F)F)c3F)CC2)CC1)C1=COCC1 [Example 497, 4,5-Dihydrofuran-3-carboxylic acid (4-{2-[4-(2-fluoro-3-trifluoromethylphenyl)piperazin-1-yl]ethyl}cyclohexyl) amide]

melting point: 280 °C
SMILES: CSc1ccccc1N1CCN(CCC2CCN(CC(C)=O)CC2)CC1.Cl.Cl

melting point: 136 °C
SMILES: COCC(=O)N[C@H]1CC[C@H](CCN2CCN(c3cccc(C)c3C#N)CC2)CC1 [Example 49, N-(4-{2-[4-(2-Cyano-3-methylphenyl)piperazin-1-yl]ethyl}cyclohexyl)-2-methoxyacetamide]

melting point: 261 °C
SMILES: CC(=O)CN1CCC(CCN2CCN(c3cc(Cl)c(Cl)cc3Cl)CC2)CC1.Cl.Cl

melting point: 174 °C
SMILES: N#CCCCC(=O)N[C@H]1CC[C@H](CCN2CCN(c3cc(C#N)cc(C(F)(F)F)c3)CC2)CC1 [Example 432, 4-Cyano-N-(4-{2-[4-(3-cyano-5-trifluoromethylphenyl)piperazin-1-yl]ethyl}cyclohexyl)butanamide]

melting point: 142 °C
SMILES: O=C(N[C@H]1CC[C@H](CCN2CCN(c3cccc(C(F)(F)F)c3)CC2)CC1)C1=CCCCO1 [Example 562, 5,6-Dihydro-4H-pyran-2-carboxylic acid (4-{2-[4-(3-trifluoromethylphenyl)piperazin-1-yl]ethyl}cyclohexyl) amide]

melting point: 260 °C
SMILES: COc1ccc(C(F)(F)F)cc1N1CCN(CCC2CCN(CC(C)=O)CC2)CC1.Cl.Cl

melting point: 291 °C
SMILES: CCc1ccccc1N1CCN(CCC2CCN(CC(C)=O)CC2)CC1.Cl.Cl

melting point: 171 °C
SMILES: COCCCC(=O)N[C@H]1CC[C@H](CCN2CCN(c3ccc(Cl)cc3Cl)CC2)CC1 [Example 761, N-(4-{2-[4-(2,4-Dichlorophenyl)piperazin-1-yl]ethyl}cyclohexyl)-4-methoxybutanamide]

melting point: 146 °C
SMILES: COCC(=O)N[C@H]1CC[C@H](CCN2CCN(c3ccc(F)c(C(F)(F)F)c3)CC2)CC1 [Example 760, N-(4-{2-[4-(4-Fluoro-3-trifluoromethylphenyl)piperazin-1-yl]ethyl}cyclohexyl)-2-methoxyacetamide]

melting point: 153 °C
SMILES: Cc1ccc(C(F)(F)F)cc1N1CCN(CC[C@H]2CC[C@H](NC(=O)CCCC#N)CC2)CC1 [Example 388, 4-Cyano-N-(4-{2-[4-(2-methyl-5-trifluoromethylphenyl)piperazin-1-yl]ethyl}cyclohexyl)butyramide]

melting point: 250 °C
SMILES: CC(=O)CN1CCC(CCN2CCN(c3ccccc3F)CC2)CC1.Cl.Cl

melting point: 150 °C
SMILES: COCC(=O)N1CCC(CCN2CCN(c3cccc(C(F)(F)F)c3)CC2)CC1.Cl

melting point: 308 °C
SMILES: CC(=O)CN1CCC(CCN2CCN(c3cc(C(C)(C)C)cc(C(C)(C)C)c3)CC2)CC1.Cl.Cl

melting point: 110 °C
SMILES: CC(=O)CN1CCC(CCN2CCN(c3ccc4scnc4c3)CC2)CC1 [Example 264, 1-{4-[2-(4-Benzothiazol-5-ylpiperazin-1-yl)ethyl]piperidin-1-yl}propan-2-one]

melting point: 97 °C
SMILES: CC(=O)CN1CCC(CCN2CCN(c3cccc(C(C)O)c3)CC2)CC1 (stereo not shown) [Example 606, 1-[4-(2-{4-[3-(1-Hydroxyethyl)phenyl]piperazin-1-yl}ethyl)piperidin-1-yl]propan-2-one]

melting point: 152 °C
SMILES: N#CCC(=O)N[C@H]1CC[C@@H](CCN2CCN(c3cc(C(F)(F)F)ccc3F)CC2)CC1 [Example 586, 2-Cyano-N-(4-{2-[4-(2-fluoro-5-trifluoromethylphenyl)piperazin-1-yl]ethyl}cyclohexyl)acetamide]

melting point: 178 °C
SMILES: N#CCC(=O)N[C@H]1CC[C@H](CCN2CCN(c3cc(F)cc(C(F)(F)F)c3)CC2)CC1 [Example 664, 2-Cyano-N-(4-{2-[4-(3-fluoro-5-trifluoromethylphenyl)piperazin-1-yl]ethyl}cyclohexyl)acetamide]

melting point: 151 °C
SMILES: N#CCCC(F)(F)C(=O)N[C@H]1CC[C@H](CCN2CCN(c3cccc(C(F)(F)F)c3F)CC2)CC1 [Example 460, 4-Cyano-2,2-difluoro-N-(4-{2-[4-(2-fluoro-3-trifluoromethyl-phenyl)piperazin-1-yl]ethyl}cyclohexyl)butanamide]

melting point: 80 °C
SMILES: CC(=O)CN1CCC(CCN2CCN(c3cc(F)c(C(F)(F)F)c(F)c3)CC2)CC1.Cl.Cl

melting point: 125 °C
SMILES: O=C(C=C1CCC(CCN2CCN(c3ccccc3F)CC2)CC1)NCC(F)(F)F (stereo not shown) [Example 303, 2-(4-{2-[4-(2-Fluorophenyl)-piperazin-1-yl]ethyl}cyclo-hexylidene)-N-(2,2,2-trifluoroethyl)acetamide]

melting point: 249 °C
SMILES: CC(=O)CN1CCC(CCN2CCN(c3c(C)cccc3C)CC2)CC1.Cl.Cl

melting point: 84 °C
SMILES: CCOCC(=O)N[C@H]1CC[C@H](CCN2CCC(c3cccc(C(F)(F)F)c3)CC2)CC1 [Example 83, 2-Ethoxy-N-(4-{2-[4-(3-trifluoromethylphenyl)piperidin-1-yl]ethyl}cyclohexyl)acetamide]

melting point: 134 °C
SMILES: COCCCC(=O)N[C@H]1CC[C@H](CCN2CCC(c3cccc(C(F)(F)F)c3)CC2)CC1 [Example 84, 4-Methoxy-N-(4-{2-[4-(3-trifluoromethylphenyl)piperidin-1-yl]ethyl}cyclohexyl)butanamide]

melting point: 169 °C
SMILES: N#CCCCC(=O)N[C@H]1CC[C@H](CCN2CCN(c3csc4cc(C(F)(F)F)ccc34)CC2)CC1 [Example 253, 4-Cyano-N-(4-{2-[4-(6-trifluoromethylbenzo[b]thiophen-3-yl)piperazin-1-yl]ethyl}cyclohexyl)butanamide]

— patent publication US8802678B2, “Carbonylated (aza) cyclohexanes as dopamine D3 receptor ligands” (Bioprojet, priority 2006, dated 2014)
